Tested on: PEA2 ovarian cancer cell line
Test: PEA2 matrix pellet tumor on egg CAM treated with Carboplatin
Type: in vivo
Conditions: 400 μg Carboplatin intravenous injection at E13; tumor excised from E16 egg
Procedure: FIGS. 1A-1C are micrographs showing bright field images of a Matrigel® pellet formed comprising 3×10^5 cells of PEA2 ovarian cancer cell line. (1A) is an image of a liquid Matrigel® placed on ParafilmTM at 37° C. for 30 minutes and allowed to solidify before being placed on the CAM of an embryonic day 9 egg (E9; pellet circumference=3-5 mm). (1B) is an image of a tumor excised from an E16 egg following engraftment with a MATRIGEL® pellet, as shown in […]). […] (1C) is images of a low-passage ovarian cancer cell line derived from ascites liquid drained from a patient which was engrafted, and the resulting tumor was excised, fixed embedded, sectioned (7 μm) and stained with either (left) hematoxylin and eosin or (right) for expression of CD44 by immunohistochemistry (tumor diameter is 0.4 cm). The ovarian cancer cell line PEA2 was embedded in a matrix pellet by resuspending 3×10^5 PEA2 cells in 15 μl Matrigel®, on ice, and pipetting onto a solid surface (Parafilm) at 37° C. for 30 minutes (FIG. 1A). The Matrigel® pellet that formed was then placed on the CAM of an E9 egg, close to an underlying CAM blood vessel junction. It was not necessary to wound the CAM surface blood vessels in order to achieve a high rate of engraftment. […] Tissue sections (7 μm thick) were cut and analyzed by histology and immunohistochemistry for cell viability, proliferation and death (FIG. 1C).

N.N.O=C([O-])C1(C(=O)[O-])CCC1.[Pt+2] [Carboplatin]
tumor size compared to the original MATRIGEL pellet: shrunk in size
